According to patent US8884023B2, “Pyrano [3,2-D][1,3]thiazole as glycosidase inhibitors” (priority 2011, dated 2014):
Read-outs that look alike come from different tables or passages of the source.

How the values were obtained:
[1] = target: T1, His-Tagged hOGA (human O-GlcNAcase) (Homo sapiens, UniProt O60502); assay: biochemical
T1 sequence (O60502 1-916): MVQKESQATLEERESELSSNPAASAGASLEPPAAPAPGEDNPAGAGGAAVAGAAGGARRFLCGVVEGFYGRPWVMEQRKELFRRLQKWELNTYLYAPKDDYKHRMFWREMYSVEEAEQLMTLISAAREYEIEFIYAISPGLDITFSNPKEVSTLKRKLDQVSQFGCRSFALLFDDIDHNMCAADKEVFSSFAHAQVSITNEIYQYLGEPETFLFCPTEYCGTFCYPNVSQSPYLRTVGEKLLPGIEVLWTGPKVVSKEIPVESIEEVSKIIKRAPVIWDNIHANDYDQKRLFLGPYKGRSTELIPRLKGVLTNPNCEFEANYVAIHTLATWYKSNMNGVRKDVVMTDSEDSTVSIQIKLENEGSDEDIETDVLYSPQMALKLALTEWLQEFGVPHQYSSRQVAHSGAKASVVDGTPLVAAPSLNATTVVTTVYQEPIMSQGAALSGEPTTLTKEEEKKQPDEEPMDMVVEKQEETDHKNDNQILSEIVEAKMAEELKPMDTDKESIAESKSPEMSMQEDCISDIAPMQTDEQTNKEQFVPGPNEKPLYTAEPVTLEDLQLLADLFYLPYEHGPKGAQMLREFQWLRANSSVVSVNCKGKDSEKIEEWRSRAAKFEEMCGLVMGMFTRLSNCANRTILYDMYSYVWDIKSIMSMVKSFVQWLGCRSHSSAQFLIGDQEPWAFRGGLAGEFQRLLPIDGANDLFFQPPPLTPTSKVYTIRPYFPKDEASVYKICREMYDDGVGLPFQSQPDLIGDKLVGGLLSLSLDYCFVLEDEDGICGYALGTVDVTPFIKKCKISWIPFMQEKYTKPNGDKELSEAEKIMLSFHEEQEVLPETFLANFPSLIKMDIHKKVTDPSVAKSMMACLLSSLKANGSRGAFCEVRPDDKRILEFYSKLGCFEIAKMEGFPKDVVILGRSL
Description: Human O-GlcNAcase Enzyme Inhibition Assay
The following reaction components were added to a final volume of 10 μL in McIlvaine's Buffer (pH 6.5):
20 nM His-Tagged hOGA and 10 μM Fluoroscein mono-beta-D-(2-deoxy-2-N-acetyl) glucopyranoside (FL-GlcNAc; Marker Gene Technologies Inc, Part #M1485). […] The amount of fluorescence measured was plotted against the concentration of inhibitor to produce a sigmoidal dose response curve, from which an IC50 was calculated.

O-GlcNAcase = target: T2, O-GlcNAcase (UniProt Q8VIJ5); type: cell-based
T2 sequence (Q8VIJ5 1-916): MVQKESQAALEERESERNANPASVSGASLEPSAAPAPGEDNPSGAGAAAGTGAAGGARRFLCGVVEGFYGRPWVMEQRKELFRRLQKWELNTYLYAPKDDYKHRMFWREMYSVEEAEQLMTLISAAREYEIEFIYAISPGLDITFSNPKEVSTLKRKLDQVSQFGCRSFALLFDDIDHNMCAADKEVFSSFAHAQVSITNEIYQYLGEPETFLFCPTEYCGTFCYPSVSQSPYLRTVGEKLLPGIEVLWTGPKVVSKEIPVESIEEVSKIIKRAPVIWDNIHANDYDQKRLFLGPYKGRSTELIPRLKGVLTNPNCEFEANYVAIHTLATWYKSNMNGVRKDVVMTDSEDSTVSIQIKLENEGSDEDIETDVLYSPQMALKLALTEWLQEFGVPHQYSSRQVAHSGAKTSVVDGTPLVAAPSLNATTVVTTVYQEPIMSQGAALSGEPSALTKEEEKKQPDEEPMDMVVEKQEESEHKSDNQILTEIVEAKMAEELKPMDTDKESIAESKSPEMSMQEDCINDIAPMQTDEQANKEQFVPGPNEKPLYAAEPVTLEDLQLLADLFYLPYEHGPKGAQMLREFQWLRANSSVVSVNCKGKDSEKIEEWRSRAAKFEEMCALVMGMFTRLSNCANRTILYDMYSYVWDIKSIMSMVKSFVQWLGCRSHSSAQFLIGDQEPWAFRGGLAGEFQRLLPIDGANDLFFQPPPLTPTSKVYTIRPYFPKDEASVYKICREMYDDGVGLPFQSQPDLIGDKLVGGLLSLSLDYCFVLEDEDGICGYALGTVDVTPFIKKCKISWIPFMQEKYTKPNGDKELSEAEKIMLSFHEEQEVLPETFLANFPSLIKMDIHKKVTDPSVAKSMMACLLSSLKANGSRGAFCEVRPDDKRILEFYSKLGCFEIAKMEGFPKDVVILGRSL
Text: Assay for the Determination of Cellular Activity for Compounds that Inhibit O-GlcNAcase Activity
Inhibition of O-GlcNAcase, which removes O-GlcNAc from cellular proteins, results in an increase in the level of O-GlcNAcylated proteins in cells. An increase in the O-GlcNAcylation of cellular proteins can be measured by an antibody, such as CTD110.6, that binds O-GlcNAcylated proteins. The amount of O-GlcNAcylated protein can be determined by the enzyme linked immunoabsorbant assay (ELISA) technique.
Cell lines, such as rat B35, rat PC-12 and human SH-SY5Y cells, expressing endogenous levels of O-GlcNAcase, could be utilized. Cells were plated in 96-well plates at a density of approximately 10,000 cells/well. Compounds to be tested were dissolved in DMSO as 10 mM stock solution, and then diluted first with DMSO and then culture media using the Bravo workstation. Cells were treated with diluted compounds for approximately 16 hours. […] To prepare a cell lysate, the media from compound treated cells were removed, and the cells were washed once with Dulbecco's phosphate buffered saline (DPBS) and then lysed for 30 minutes in 100 μl/well of ice cold RIPA buffer containing a protease inhibitor cocktail.
The ELISA portion of the assay was performed in EIA/RIA plates that were coated overnight at 4 C with 80 μl/well of cell lysate. The following day the wells were washed 6 times with 200 μl of wash buffer (0.05% Tween20 in DPBS). The wells were blocked with 200 μl blocking buffer (1% BSA, 0.05% Tween20 in DPBS) for 1 h at room temperature. Each well was then washed 6 times with 200 μl of wash buffer. The anti-O-GlcNAc antibody CTD110.6 (Covance, Princeton, N.J.) was added at 100 μl/well at a concentration of 10 μg/ml. The plates were incubated for 1 h at room temperature. The wells were then washed 6 times with 200 μl/well of wash buffer. To detect the amount of CTD110.6 bound to the cell lysate, alkaline phosphatase conjugated goat anti-mouse IgM (diluted 1:500 in blocking buffer) was added at 100 μl/well and incubated for 45 min at room temperature. Each well was then washed 6 times with 200 μl/well of wash buffer. PNPP tablets dissolved in diethanolamine substrate buffer and 100 μl/well were added as detection reagent.
The amount of O-GlcNAcylated protein, as detected by the ELISA assay, was plotted for each concentration of test compound using standard curve fitting algorithms for sigmoidal dose response curves. The values for a four parameter logistic curve fit of the data were determined, with the inflection point of the curve being the potency value for the test compound.

[2] = cells expressing endogenous O-GlcNAcase (such as rat B35, rat PC-12, human SH-SY5Y), approximately 16 hours treatment; read-out: OGA cellular inhibition (EC50)
[3] = read-out: OGA enzyme inhibition (IC50)

| Structure (SMILES) | EC50 (O-GlcNAcase; [2]) [nM] | IC50 [1, 3] [nM] | IC50 [1] [nM] | EC50 (O-GlcNAcase; read-out: OGA cellular inhibition (EC50); cells expressing endogenous O-GlcNAcase (such as rat B35, rat PC-12, human SH-SY5Y), approximately 16 hours treatment) [nM] |
| --- | --- | --- | --- | --- |
| CCNC1=N[C@@H]2[C@@H](O)[C@H](O)[C@@H](COC(c3ccccc3)(c3ccccc3)c3ccccc3)O[C@@H]2S1 [compound 43] | > 1000 |  | 500 to 1000 |  |
| CCNC1=N[C@@H]2[C@@H](O)[C@H](O)[C@@H](Cn3cc(COc4cccc(Cl)c4)nn3)O[C@@H]2S1 [compound 78] | < 100 |  | < 100 |  |
| CCNC1=N[C@@H]2[C@@H](O)[C@H](O)[C@@H](Cn3cc(COc4ccccc4C#N)nn3)O[C@@H]2S1 [compound 82] | > 1000 |  | < 100 |  |
| CCNC1=N[C@@H]2[C@@H](O)[C@H](O)[C@@H](Cn3cc(C(C)(O)c4ccccc4)nn3)O[C@@H]2S1 (stereo partly shown) [compound no. 67, 2-Ethylamino-5-[4-(1-hydroxy-1-phenyl-ethyl)-[1,2,3]triazol-1-ylmethyl]-5,6,7,7a-tetrahydro-3aH-pyrano[3,2-d]thiazole-6,7-diol] | < 100 |  | < 100 |  |
| CCN(C(=O)OC(C)(C)C)C1=N[C@@H]2[C@@H](O)[C@H](O)[C@@H](CO)O[C@@H]2S1 [compound no. 12, Tert-butyl [(3aR,5R,6S,7R,7aR)-6,7-dihydroxy-5-(hydroxymethyl)-5,6,7,7a-tetrahydro-3aH-pyrano[3,2-d][1,3]thiazol-2-yl]ethylcarbamate] | < 100 |  | < 100 |  |
| CCNC1=N[C@@H]2[C@@H](O)[C@H](O)[C@@H](Cn3cc(COc4ccc(C(C)(C)C)cc4)nn3)O[C@@H]2S1 [compound 94] | 100 to 500 |  | 100 to 500 |  |
| CCNC1=N[C@@H]2[C@@H](O)[C@H](O)[C@@H](Cn3cc(COc4cccc(C(C)O)c4)nn3)O[C@@H]2S1 (stereo partly shown) [compound 76] | > 1000 |  | < 100 |  |
| CCNC1=N[C@@H]2[C@@H](O)[C@H](O)[C@@H](CF)O[C@@H]2S1 [compound no. 4, (3aR,5S,6S,7R,7aR)-2-(ethylamino)-5-(fluoromethyl)-5,6,7,7a-tetrahydro-3aH-pyrano[3,2-d][1,3]thiazole-6,7-diol] |  |  | < 100 | 100 to 500 |
| CCNC1=N[C@@H]2[C@@H](O)[C@H](O)[C@@H](Cn3cc(COc4cccc(S(C)(=O)=O)c4)nn3)O[C@@H]2S1 [compound 81] | > 1000 |  | < 100 |  |
| CCNC1=N[C@@H]2[C@@H](O)[C@H](O)[C@@H](Cn3cc(CN(C)c4ccccc4)nn3)O[C@@H]2S1 [compound 71] | > 1000 |  | 100 to 500 |  |

More lines, main results first:

| EC50 (O-GlcNAcase; [2]) [nM] | IC50 [1, 3] [nM] | Structure (SMILES) | IC50 [1] [nM] | EC50 (O-GlcNAcase; read-out: OGA cellular inhibition (EC50); cells expressing endogenous O-GlcNAcase (such as rat B35, rat PC-12, human SH-SY5Y), approximately 16 hours treatment) [nM] |
| --- | --- | --- | --- | --- |
| 500 to 1000 | < 100 | CCNC1=N[C@@H]2[C@@H](O)[C@H](O)[C@@H](Cn3cc(COc4ccccc4C)nn3)O[C@@H]2S1 [compound 87] |  |  |
| 100 to 500 | < 100 | CCNC1=N[C@@H]2[C@@H](O)[C@H](O)[C@@H](Cn3cc(COc4ccc(Cl)cc4)nn3)O[C@@H]2S1 [compound 92] |  |  |
| 500 to 1000 | < 100 | CCNC1=N[C@@H]2[C@@H](O)[C@H](O)[C@@H](Cn3cc(COc4ccccc4)nn3)O[C@@H]2S1 [compound no. 58, (3aR,5R,6S,7R,7aR)-2-(ethylamino)-5-{[4-(phenoxymethyl)-1H-1,2,3-triazol-1-yl]methyl}-5,6,7,7a-tetrahydro-3aH-pyrano[3,2-d][1,3]thiazole-6,7-diol] |  |  |
| < 100 | < 100 | CCNC1=N[C@@H]2[C@@H](O)[C@H](O)[C@@H](CCl)O[C@@H]2S1 [compound no. 32, (3aR,5S,6S,7R,7aR)-5-(chloromethyl)-2-(ethylamino)-5,6,7,7a-tetrahydro-3aH-pyrano[3,2-d][1,3]thiazole-6,7-diol] |  |  |
| > 1000 | < 100 | CCNC1=N[C@@H]2[C@@H](O)[C@H](O)[C@@H](Cn3cc(COc4ccc(F)cc4)nn3)O[C@@H]2S1 [compound 93] |  |  |
| 100 to 500 | 100 to 500 | CCNC1=N[C@@H]2[C@@H](O)[C@H](O)[C@@H](C(O)CCc3ccccc3)O[C@@H]2S1 (single isomer, unassigned) [compound no. 53] |  |  |
| 100 to 500 | 100 to 500 | CCNC1=N[C@@H]2[C@@H](OS(C)(=O)=O)[C@H](O)[C@@H](CO)O[C@@H]2S1 [compound no. 46, (3aR,5R,6R,7R,7aR)-2-(ethylamino)-6-hydroxy-5-(hydroxymethyl)-5,6,7,7a-tetrahydro-3aH-pyrano[3,2-d][1,3]thiazol-7-yl methanesulfonate] |  |  |
| > 1000 | 100 to 500 | CCNC1=N[C@@H]2[C@@H](O)[C@H](O)[C@@H](Cn3cc(COc4ccc(C)cc4)nn3)O[C@@H]2S1 [compound 91] |  |  |
| < 100 | 100 to 500 | CCNC1=N[C@@H]2[C@@H](O)[C@H](O)[C@@H](COC(=O)OC(C)(C)C)O[C@@H]2S1 [compound no. 3, tert-butyl [(3aR,5R,6S,7R,7aR)-2-(ethylamino)-6,7-dihydroxy-5,6,7,7a-tetrahydro-3aH-pyrano[3,2-d][1,3]thiazol-5-yl]methyl carbonate] |  |  |
| > 1000 | 100 to 500 | CCNC1=N[C@@H]2[C@@H](O)[C@H](O)[C@@H](Cn3cc(-c4ccccn4)nn3)O[C@@H]2S1 [compound no. 7, (3aR,5R,6S,7R,7aR)-2-(ethylamino)-5-[(4-pyridin-2-yl-1H-1,2,3-triazol-1-yl)methyl]-5,6,7,7a-tetrahydro-3aH-pyrano[3,2-d][1,3]thiazole-6,7-diol] |  |  |
